These results are taken from publication PMC6026847, “Synthesis and Evaluation of the First Fluorescent Antagonists of the Human P2Y2 Receptor Based on AR-C118925” (Journal of Medicinal Chemistry, 2018).

Read-outs that look alike come from different tables or passages of the source.

One test addresses T1, hP2Y2R (Homo sapiens, UniProt P41231).
T1 construct: The 1321N1 cells expressing wild-type P2Y2R (P2Y2R-1321N1) were gifted by Dr. Elizabeth Rosethorne; expressed in transfected cells; host or cells: 1321N1 astrocytoma cells (P2Y2R-1321N1), gifted
Put plainly: Calcium-mobilization assay in P2Y2-1321N1 cells (antagonism of UTPγS). In kind it is cell-based. The conditions noted are these: for Kb: Gaddum equation.

The target in test [1] is T2, NLuc-P2Y2R (Homo sapiens, UniProt P41231).
T2 construct: expressed in transfected cells
T2 sequence (P41231 2-377 limits assumed): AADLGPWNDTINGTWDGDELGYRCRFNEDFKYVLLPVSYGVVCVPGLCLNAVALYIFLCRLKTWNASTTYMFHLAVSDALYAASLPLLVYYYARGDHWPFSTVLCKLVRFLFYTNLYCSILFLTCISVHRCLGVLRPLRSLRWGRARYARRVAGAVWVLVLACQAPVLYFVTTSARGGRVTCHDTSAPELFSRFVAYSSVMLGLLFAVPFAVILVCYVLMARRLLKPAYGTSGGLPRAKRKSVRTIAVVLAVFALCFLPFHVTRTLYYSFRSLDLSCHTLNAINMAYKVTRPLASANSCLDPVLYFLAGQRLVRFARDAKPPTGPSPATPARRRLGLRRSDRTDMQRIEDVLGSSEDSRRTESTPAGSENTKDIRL
The test can be described thus: NanoBRET competition binding in NLuc-P2Y2 1321N1 cells. The conditions noted are these: Table 7, competition binding with fluorescent ligand 98, mean ± SEM.

For test [2], the system named is human bronchial epithelial cells. More on the design: method as in PMID 15231488. The conditions noted are these: ex vivo; cited from earlier work.
Test [3] concerns panel of 37 other receptors. More on the design: method as in PMID 15231488. The conditions noted are these: 10 μM; cited from earlier work.
The test system of a further test is hP2Y2. More on the design: method as in PMID 28958619. The conditions noted are these: cited from earlier work.
Test [4] addresses T2, NLuc-P2Y2R. Put plainly: Calcium signal of NLuc-tagged P2Y2 receptors in 1321N1 cells. It is filed as cell-based. The conditions noted are these: n = 3, read-out: UTPγS EC50 (calcium signal). Here is the method:
To create the NLuc-P2Y2R constructs, human P2Y2R DNA (obtained from the Missouri S&T cDNA Resource Center) was amplified by PCR to remove the methionine start signal and cloned into pCR2.1 (linearized vector, Invitrogen). P2Y2R was then subcloned in-frame with the membrane-signal sequence of the 5HT3A receptor and the full-length sequence of nanoluciferase.
P2Y2-1321N1 cells seeded into black-sided 96-well view plates were incubated at 37 °C without CO2 for 45 min in a total volume of 100 μL of a HEPES-buffered saline solution (HBSS; 10 mM HEPES, 10 mM glucose, 145 mM NaCl, 5 mM KCl, 1 mM MgSO4, 2 mM sodium pyruvate, and 1.3 mM CaCl2) containing 2.5 mM probenecid, 2.3 μM Fluo 4AM, 0.023% pluronic acid, 0.5 mM Brilliant Black, 1 U/mL apyrase, and the ligand under investigation or the vehicle. The plates were then loaded onto a plate reader (FLEXstation, Molecular Devices), and the fluorescence was measured (excitation: 485 nm, emission: 525 nm) every 1.52 s for up to 200 s after the addition of UTPγS at 15 s. For the investigation of the BODIPYFL-labeled ligands, Fluo 4AM was replaced with 2.0 μM X-Rhod-1 AM (excitation: 584 nm, emission: 612 nm).

The mark [5] stands for this setting: Table 7, shift of agonist dose–response curve by a single antagonist concentration, mean ± SEM, read-out: pKb Ca2+ mobilization (converted).

T1 sequence (P41231 whole entry): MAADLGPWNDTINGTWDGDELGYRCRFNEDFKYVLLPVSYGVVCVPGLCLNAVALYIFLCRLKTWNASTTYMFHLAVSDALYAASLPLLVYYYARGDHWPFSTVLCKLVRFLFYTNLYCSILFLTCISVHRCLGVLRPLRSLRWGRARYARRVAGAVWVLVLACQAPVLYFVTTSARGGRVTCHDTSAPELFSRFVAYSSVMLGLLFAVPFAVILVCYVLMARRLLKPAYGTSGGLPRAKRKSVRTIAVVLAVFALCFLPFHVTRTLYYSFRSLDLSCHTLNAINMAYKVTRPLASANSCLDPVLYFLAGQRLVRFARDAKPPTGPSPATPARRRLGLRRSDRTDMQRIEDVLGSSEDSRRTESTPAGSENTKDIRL

Take `Cc1ccc2c(c1)C=Cc1cc(C)ccc1C2c1cn(Cc2cc(C(=O)O)cc(C(=O)O)c2)c(=O)[nH]c1=S` [Example 60, 5-((5-(2,8-Dimethyl-5H-dibenzo[a,d][7]annulen-5-yl)-2-oxo-4-thioxo-3,4-dihydropyrimidin-1(2H)-yl)methyl)isophthalic Acid]: the Kb on hP2Y2R (setting [5]) was 295 nM. Moreover, at hP2Y2R (quoted in text for nonfluorescent antagonists, mean ± SEM, read-out: hP2Y2R affinity pKd (converted)), the Kd was 295 nM. Also, the Ki at NLuc-P2Y2R [1] (read-out: pKi NanoBRET (98) (converted)) was 145 nM.
For `Cc1ccc2c(c1)C=Cc1cc(C)ccc1C2c1cn(Cc2ccc(C(=O)Nc3nnn[nH]3)o2)c(=O)[nH]c1=S` [Example 1], the “antagonism of ATPγS-induced mucin secretion” value in test [2] is “concentration-dependently antagonize”. For the same compound, in test [3], the “activity against a panel of 37 other receptors” value is “inactive”.
Regarding `O=c1[nH]c(=S)c(C2c3ccccc3CCc3ccccc32)cn1[C@@H]1O[C@H](COP(=O)([O-])OP(=O)([O-])C(Cl)(Cl)P(=O)([O-])[O-])[C@@H](O)[C@H]1O.[Na+].[Na+].[Na+].[Na+]` [Example 99, reference compound], the “pA2 (literature/reported value)” value in the test with hP2Y2 was “d Reported pA2 = 8.0.[8]”. The Kb at hP2Y2R (setting [5]) was 257 nM.
With `O=c1ccn([C@@H]2O[C@H](COP(=O)(O)OP(=O)(O)OP(O)(O)=S)[C@@H](O)[C@H]2O)c(=O)[nH]1` [UTPγS, uridine-5′-(γ-thio)-triphosphate, reference compound], the EC50 at NLuc-P2Y2R [4] came to 91 ± 12 nM; at hP2Y2R (agonist, calcium mobilization, n = 25), 7.9 nM. Also, the “pKi NanoBRET (98)” value on NLuc-P2Y2R [1] is 5.46 ± 0.04 (6).
On to `Cc1ccc2c(c1)C=Cc1cc(C)ccc1C2c1cn(Cc2nc(C(=O)O)cs2)c(=O)[nH]c1=S` [Example 2, 2-((5-(2,8-dimethyl-5H-dibenzo[a,d][7]annulen-5-yl)-2-oxo-4-thioxo-3,4-dihydropyrimidin-1(2H)-yl)methyl)thiazole-4-carboxylic acid], for which the “pA2 (literature/reported value)” value in the test on hP2Y2 is “c The literature value is pA2 = 5.7.[8]”. On hP2Y2R (Table 1, shift of UTPγS concentration–response curve by a single antagonist concentration, mean ± SEM, read-out: hP2Y2 pKb (converted)), the Kb was 372 nM.
